In patent US20220313670A1, “Methods Of Treating Fabry Disease In Patients Having Renal Impairment” (Amicus Therapeutics, Inc., priority 2019, published 2022):
Where “and” joins values, the source holds several entries; their conditions need not be identical. Equal values may be shown once. Read-outs that look alike come from different tables or passages of the source.

What was measured:
Fabry disease = assay: Phase 3 studies (FACETS, ATTRACT) of migalastat 150 mg every other day in Fabry patients; type: in vivo, human
From the text: One or more of the dosing regimens described herein are particularly suitable for Fabry patients who have some degree of renal impairment. […]00925301) was a 24-month trial, including a 6-month double-blind, placebo-controlled period, in 67 enzyme replacement therapy (ERT)-naive patients. ATTRACT (012, NCT01218659) was an active-controlled, 18-month trial in 57 ERT-experienced patients with a 12-month open-label extension (OLE). […] Accordingly, both studies included Fabry patients with normal renal function as well as patients with mild and moderate renal impairment, but neither study included patients with severe renal impairment. […] With a slowing in the ability to clear the drug from the body there can be an increasing exposure to the patient to the drug. Thus, in some embodiments a dose adjustment protocol is provided to inform physicians of the best dose taking into consideration the current clearance profile from the body. Dose adjustment is particularly difficult with a chaperone because it is an inhibitor, and a delicate balance must be reached such that the chaperone is present in amounts great enough to be therapeutic, but also not so great that the chaperone inhibits enzyme function (which would exacerbate the disease).

[1] = eGFR (MDRD), IDMS traceable, in Fabry patients on migalastat; type: in vivo, human; parameters: eGFR(MDRD), IDMS Traceable: unit not given here
Procedure: An estimated GFR (eGFR) is calculated from serum creatinine using an isotope dilution mass spectrometry (IDMS) traceable equation. Two of the most commonly used equations for estimating glomerular filtration rate (GFR) from serum creatinine are the Chronic Kidney Disease Epidemiology Collaboration (CKD-EPI) equation and the Modification of Diet in Renal Disease (MDRD) Study equation. Both the MDRD Study and CKD-EPI equations include variables for age, gender, and race, which may allow providers to observe that CKD is present despite a serum creatinine concentration that appears to fall within or just above the normal reference interval. The following is the IDMS-traceable MDRD Study equation (for creatinine methods calibrated to an IDMS reference method): […]

[2] = cited from earlier work; for Mean percent of the dose recovered in urine: single ascending dose (SAD) study
[3] = Highest recorded migalastat exposure in a Fabry patient after a single dose of 450 mg; type: in vivo, human; details: single dose of 450 mg
From the text: FIGS. 2A-D show the mean simulation plots for each regimen.

cardiac repolarization = details: 150 mg and 1250 mg single doses; cited from earlier work
[4] = Phase 1 single-dose pharmacokinetics and safety study of migalastat HCl in non-Fabry subjects with renal impairment (Example 1, AT1001-015); type: in vivo, human; details: for AUC0-∞: individual subjects, in ng·h/mL; for concentration at 96 h: read-out: C96 h, Mean; for Comparison to Example 1 Moderate Impairment (migalastat concentration): non-Fabry subjects with moderate renal impairment, in ng/mL (unit assumed); for Comparison to Example 1 Severe Impairment (migalastat concentration): non-Fabry subjects with severe renal impairment, (coefficient of variation)
Procedure: The eGFR estimated by the Cockcroft-Gault equation per the FDA Guidance for renal impairment studies.
Volunteers were enrolled into two cohorts stratified for renal function calculated using the Cockcroft-Gault equation for creatinine clearance (CLcr). Subjects were assigned to groups based on an estimated CLcr at screening as calculated using the Cockcroft-Gault equation.
Subjects were grouped according to degree of renal dysfunction: mild (CLcr ≥60 and <90 mL/min), moderate (CLcr ≥30 and <60 mL/min), or severe (CLcr ≥15 and <30 mL/min)

[5] = AT1001-015, Mild (CLcr ≥60-<90 mL/min), N 8
[6] = AT1001-015, Moderate (CLcr ≥30-<60 mL/min), N 8
[7] = AT1001-015, Normal (CLcr ≥90 mL/min), N 8
[8] = AT1001-015, Severe (CLcr ≥15-<30 mL/min), N 8
[9] = human, plasma, po, 150 mg, single oral 150 mg migalastat HCl, non-Fabry subjects, renal function group Mild (N = 8)
[10] = human, plasma, po, 150 mg, single oral 150 mg migalastat HCl, non-Fabry subjects, renal function group Moderate (N = 8)
[11] = human, plasma, po, 150 mg, single oral 150 mg migalastat HCl, non-Fabry subjects, renal function group Normal (N = 8)
[12] = human, plasma, po, 150 mg, single oral 150 mg migalastat HCl, non-Fabry subjects, renal function group Severe (N = 8)
[13] = single oral 150 mg migalastat HCl, non-Fabry subjects, renal function group Mild (N = 8)
[14] = single oral 150 mg migalastat HCl, non-Fabry subjects, renal function group Moderate (N = 8)
[15] = single oral 150 mg migalastat HCl, non-Fabry subjects, renal function group Normal (N = 8)

- highest exposure of migalastat in a Fabry patient [3]: 53035 ng·h/mL
SMILES: OC[C@H]1NC[C@H](O)[C@@H](O)[C@H]1O [migalastat, (2R,3S,4R,55)-2-(hydroxymethyl) piperdine-3,4,5-triol]
- disease progression as shown by surrogate markers (Fabry disease): slowed the progression of the disease
- eGFR(MDRD), IDMS Traceable ([1]; Fabry patient P1, 18 Month Visit): 42
- eGFR(MDRD), IDMS Traceable ([1]; Fabry patient P1, 24 Month Visit): 37
- eGFR(MDRD), IDMS Traceable ([1]; Fabry patient P1, 34-Month Visit): 32
- eGFR ([1]; Fabry patient P3, Aug ′15): 32 mL/min/1.73 m^2
- eGFR ([1]; Fabry patient P3, Aug ′17): 19 mL/min/1.73 m^2
- eGFR(MDRD), IDMS Traceable ([1]; Fabry patient P3, August 2014, QOD): 37
- eGFR(MDRD), IDMS Traceable ([1]; Fabry patient P3, August 2017, Q4D): 19
- eGFR(MDRD), IDMS Traceable ([1]; Fabry patient P3, February 2014, QOD): 42
- eGFR(MDRD), IDMS Traceable ([1]; Fabry patient P3, February 2018, Q7D): 13
- eGFR(MDRD), IDMS Traceable ([1]; Fabry patient P3, January 2018, Q7D): 13
- eGFR(MDRD), IDMS Traceable ([1]; Fabry patient P3, June 2015, QOD): 32
- eGFR ([1]; Fabry patient P3, Mar ′11): 59 mL/min/1.73 m^2
- eGFR(MDRD), IDMS Traceable ([1]; Fabry patient P3, March 2011, QOD): 59
- eGFR(MDRD), IDMS Traceable ([1]; Fabry patient P3, March 2016, QOD): 28
- eGFR(MDRD), IDMS Traceable ([1]; Fabry patient P3, May 2017, Q4D): 21
- eGFR ([1]; Fabry patient P3, May ′17): 21 mL/min/1.73 m^2
- eGFR ([1]; Fabry patient P3, Nov ′17): 15 mL/min/1.73 m^2
- eGFR(MDRD), IDMS Traceable ([1]; Fabry patient P3, November 2017, Q4D): 15
- eGFR(MDRD), IDMS Traceable ([1]; Fabry patient P3, September 2010, QOD): 54
- eGFR(MDRD), IDMS Traceable ([1]; Fabry patient P3, September 2015, QOD): 33
- accumulation of plasma migalastat ([2]; multiple ascending dose studies): only minimal accumulation
- Mean Cmax and AUC0-t values versus dose ([2]; oral doses from 75 mg to 1250 mg): increased in a dose-proportional manner
- Mean percent of the dose recovered in urine ([2]; 25 mg): 32.2%
- Mean percent of the dose recovered in urine ([2]; 75 mg): 43.0%
- Mean percent of the dose recovered in urine ([2]; 225 mg): 49.3%
- Mean percent of the dose recovered in urine ([2]; 675 mg): 48.5%
- time to maximum concentrations ([2]; single-dose studies, oral, healthy volunteers and Fabry patients with normal to mildly impaired renal function (range, 1 to 6 hrs)): approximately 3 hours
- effect on cardiac repolarization (cardiac repolarization): negative
- AUC0-t, Geometric mean [4, 5]: 14374 ng·h/mL
- AUC0-∞, Geometric mean (CV %) [4, 5]: 14520 (30.8) hr*ng/mL
- C96 h, Mean [4, 5]: BLQ
- Frel [4, 5]: 1.2
- t1/2, Mean [4, 5]: 7.7 h
- tmax, Median (min-max) [4, 5]: 2.5 (1.5-4.0) hr
- AUC0-t, Geometric mean [4, 6]: 22122 ng·h/mL
- AUC0-∞, Geometric mean (CV %) [4, 6]: 22455 (41.2) hr*ng/mL
- Frel [4, 6]: 1.8
- AUC0-t, Geometric mean [4, 7]: 12299 ng·h/mL
- AUC0-∞, Geometric mean (CV %) [4, 7]: 12389 (24.8) hr*ng/mL
- C96 h, Mean [4, 7]: BLQ
- t1/2, Mean [4, 7]: 6.4 h
- tmax, Median (min-max) [4, 7]: 2.5 (1.5-3.0) hr
- AUC0-t, Geometric mean [4, 8]: 53098 ng·h/mL
- AUC0-∞, Geometric mean (CV %) [4, 8]: 56174 (24.2) hr*ng/mL
- Cmax, Geometric mean (CV %) [4, 8]: 2078 (43.3) ng/mL
- Frel [4, 8]: 4.5
- AUC0-∞ ([4]; NCA SD Data, single 150 mg migalastat HCl, Moderate (≥30-≤35) group): 36051 and 40653 and 19723
- AUC0-∞ ([4]; NCA SD Data, single 150 mg migalastat HCl, Severe (<30) group): 83312 and 54470 and 48890 and 62034 and 59538 and 65916 and 36227 and 49905
- concentration at 48 h ([4]; human, plasma, oral, 150 mg, 150 mg dose of migalastat hydrochloride, individuals with normal kidney function, level of quantification, read-out: C48h): < 5 ng/mL
- concentration at 48 h ([4]; human, plasma, oral, 150 mg, AT1001-015, Mild (CLcr ≥60-<90 mL/min), N 8, read-out: C48 h, Mean): 9.34 ng/mL
- concentration at 96 h ([4]; human, plasma, oral, 150 mg, AT1001-015, Moderate (CLcr ≥30-<60 mL/min), N 8): 16.7 ng/mL
- concentration at 48 h ([4]; human, plasma, oral, 150 mg, AT1001-015, Normal (CLcr ≥90 mL/min), N 8, read-out: C48 h, Mean): 5.7 ng/mL
- AUC(0-inf) ([4]; human, plasma, oral, 150 mg, NCA SD Data, single 150 mg migalastat HCl, Geometric Mean of the 11 subjects): 47600 ng·h/mL
- concentration at 96 h ([4]; human, plasma, oral, 150 mg, AT1001-015, Severe (CLcr ≥15-<30 mL/min), N 8): 105 ng/mL
- tmax ([4]; human, plasma, oral, 150 mg, AT1001-015, Severe (CLcr ≥15-<30 mL/min), N 8, read-out: tmax, Median (min-max)): 4 h
- AUC(0-inf) [4, 9]: 14500 ng·h/mL
- AUC(0-t) [4, 9]: 14400 ng·h/mL
- Cmax [4, 9]: 2190 ng/mL
- AUC(0-inf) [4, 10]: 22500 ng·h/mL
- AUC(0-t) [4, 10]: 22100 ng·h/mL
- Cmax [4, 10]: 1870 ng/mL
- AUC(0-inf) [4, 11]: 12400 ng·h/mL
- AUC(0-t) [4, 11]: 12300 ng·h/mL
- Cmax [4, 11]: 2100 ng/mL
- AUC(0-inf) [4, 12]: 56200 ng·h/mL
- AUC(0-t) [4, 12]: 53100 ng·h/mL
- Plasma migalastat C48h levels compared with healthy control subjects ([4]; moderate (predominantly CrCL <50 ml/min) and severe renal impairment): elevated
- Comparison to Example 1 Moderate Impairment (migalastat concentration) ([4]; 3 Hrs Post): 1868
- Comparison to Example 1 Moderate Impairment (migalastat concentration) ([4]; 24 Hrs Post): 239
- Comparison to Example 1 Moderate Impairment (migalastat concentration) ([4]; 48 Hrs Post): 64.5
- Comparison to Example 1 Moderate Impairment (migalastat concentration) ([4]; Pre-dose (0 h), same value as 48 h): 64.5
- Comparison to Example 1 Severe Impairment (migalastat concentration) ([4]; 2 h): 1549 (59.3%)
- Comparison to Example 1 Severe Impairment (migalastat concentration) ([4]; 24 h): 770 (26.5%)
- Comparison to Example 1 Severe Impairment (migalastat concentration) ([4]; 48 h): 334 (38.2%)
- Cmax compared to healthy control subjects ([4]; single oral 150 mg migalastat HCl, across any of the renal impairment groups): not increased
- Incidence of adverse events ([4]; single oral 150 mg migalastat HCl, all renal function groups): comparable across all renal function groups
- mean plasma migalastat AUC0-∞ increase compared to healthy control subjects ([4]; single oral 150 mg migalastat HCl, mild renal impairment): 1.2 fold
- mean plasma migalastat AUC0-∞ increase compared to healthy control subjects ([4]; single oral 150 mg migalastat HCl, moderate renal impairment): 1.8 fold
- CL/F [4, 13]: 10.3 L/h
- t1/2 [4, 13]: 7.66 h
- tmax [4, 13]: 2.50 h
- CL/F [4, 14]: 6.68 L/h
- tmax [4, 14]: 3.00 h
- CL/F [4, 15]: 12.1 L/h
- t1/2 [4, 15]: 6.42 h
- tmax [4, 15]: 2.50 h
- CL/F ([4]; single oral 150 mg migalastat HCl, non-Fabry subjects, renal function group Severe (N = 8)): 2.67 L/h
- tmax compared to healthy control subjects ([4]; single oral 150 mg migalastat HCl, severe group): slightly delayed
- mean plasma migalastat AUC0-∞ increase compared to healthy control subjects ([4]; single oral 150 mg migalastat HCl, severe renal impairment): 4.5 fold
